Data as given in PubChem BioAssay (NCI).
“And” between values parts separate entries of the source, which are not always exact repeats. Equal values may be shown once.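 Results reflect a 48-hour exposure of cells in 96-well plates to compound at five concentrations. TGI denotes the concentration required for complete inhibition of growth.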

Key:
Assay in all cases: NCI tumour cell line growth inhibition, 48 h
[1] = system: HCT-15 colon
[2] = system: HCT-116 colon
[3] = system: COLO 205 colon
[4] = system: NCI-H23 lung
[5] = system: NCI-H460 lung
[6] = system: HL-60(TB) leukemia
[7] = system: UACC-62 melanoma
[8] = system: SK-OV-3 ovarian
[9] = system: MCF7 breast
[10] = system: SR leukemia

SMILES	TGI [1]	TGI [2]	TGI [3]	TGI [4]	TGI [5]	TGI [6]	TGI [7]	TGI [8]	TGI [9]	TGI [10]
COC(=O)Cc1c(C2=Nc3ccccc3C2(O)CC(=O)OC)[nH]c2ccccc12 (stereo unspecified)	> 100 µM	> 100 µM	52.3 µM	> 100 µM	> 100 µM	62.7 µM	> 100 µM	> 100 µM	–	–
CC(C)(CN1CCCCC1)C(=O)CC(SCCS(=O)(=O)O)c1ccc(Br)cc1 (stereo unspecified)	6.91 µM	3.04 µM	2.82 µM	5.9 µM	4.48 µM	–	3.69 µM	–	–	–
CC1=NNC(N)=N/C1=C/C(Sc1ccc(Cl)cc1)c1cccs1 (stereo unspecified)	30 µM	29.8 µM	46.2 µM	52 µM	30.5 µM	–	–	26.4 µM	20.4 µM	–
O=C1CCSSCCC(=O)Nc2ccccc2N1	> 100 µM	> 100 µM	> 100 µM	> 100 µM	> 100 µM	> 100 µM	> 100 µM	> 100 µM	–	> 100 µM
Cc1nc2c(n1Cc1ccc(Cl)cc1)C(=O)c1ccccc1C2=O	> 75 µM	> 75 µM	> 75 µM	> 75 µM	> 75 µM	> 75 µM	> 75 µM	> 75 µM	–	> 75 µM
N#Cc1c(N)c(-c2ccc(Cl)cc2)c(F)c2ccccc12	> 100 µM	> 100 µM	> 100 µM	> 100 µM	> 100 µM	–	> 100 µM	> 100 µM	> 100 µM	–
O=C(Cn1c2ccc(Br)cc2c2nc3ccccc3nc21)NC1CCCCC1	> 100 µM	> 100 µM	> 100 µM	> 100 µM	> 100 µM	–	> 100 µM	> 100 µM	–	–
Cc1ccc(S(=O)(=O)C(C#N)c2nc3ccccc3nc2-n2cccn2)cc1 (stereo unspecified)	> 100 µM	> 100 µM	> 100 µM	> 100 µM	> 100 µM	> 100 µM	–	> 100 µM	–	–
CCCCCCCCCCCCCCCCOCC(CC(F)(F)P(=O)(O)O)OC(C)=O (stereo unspecified)	> 50 µM	> 50 µM	> 50 µM	> 50 µM	> 50 µM	–	> 50 µM	> 50 µM	> 50 µM	–
O=C(c1cccs1)N(C(=S)N1CCN(c2ccccc2)CC1)c1ccccc1	> 100 µM	> 100 µM	> 100 µM	> 100 µM	> 100 µM	> 100 µM	> 100 µM	> 100 µM	–	> 100 µM
O=C1NC(=O)/C(=C\c2ccncc2)N1	> 100 µM	> 100 µM	> 100 µM	> 100 µM	> 100 µM	–	–	> 100 µM	> 100 µM	–
NC1=NS(=O)(=O)N=C(N)C1=Cc1ccc([N+](=O)[O-])o1	30.7 µM	28.7 µM	29.1 µM	31.4 µM	35.9 µM	> 100 µM	30.2 µM	> 100 µM	–	29.2 µM
Oc1ccc(-c2c3c(nc4c2CCc2ccc(Br)cc2-4)-c2cc(Br)ccc2CC3)cc1	35.5 µM	53.7 µM	32.4 µM	38.7 µM	53.2 µM	–	44.2 µM	30.6 µM	43.1 µM	–
CCOC(=O)CCC1(C(=O)OC)CCCC1=O (stereo unspecified)	–	> 100 µM	> 100 µM	> 100 µM	> 100 µM	> 100 µM	–	> 100 µM	–	–
CC1=NN(C(=O)CC(=O)Nc2cccc(Cl)c2)C(=O)C1N=Nc1ccc(S(N)(=O)=O)cc1 (stereo unspecified)	> 100 µM	> 100 µM	> 100 µM	> 100 µM	> 100 µM	–	> 100 µM	> 100 µM	–	> 100 µM
O=c1[nH]c(=O)n(C2CC(O)C(CO)O2)cc1C#Cc1ccc(C(F)(F)F)cc1 (stereo unspecified)	> 100 µM	> 100 µM	> 100 µM	> 100 µM	> 100 µM	> 100 µM	> 100 µM	> 100 µM	–	> 100 µM
C/C(=N\N(C)C)C(CN(C)C)C(c1ccccc1)c1c(O)c2ccccc2oc1=O (stereo unspecified)	> 100 µM	> 100 µM	> 100 µM	> 100 µM	> 100 µM	> 100 µM	> 100 µM	> 100 µM	–	–
O=C1CCC2(CCC(=O)NC2=O)C(=O)N1	> 100 µM	> 100 µM	> 100 µM	> 100 µM	> 100 µM	> 100 µM	–	> 100 µM	–	> 100 µM
c1ccc(C2=NN3CN(N2)c2ccccc2OCCCOc2ccccc23)cc1	> 100 µM	> 100 µM	> 100 µM	> 100 µM	> 100 µM	> 100 µM	> 100 µM	–	–	> 100 µM
Brc1ccc(N2C[N+](c3ccc(Br)cc3)=NC(c3ccccc3)=N2)cc1	33.5 µM and > 100 µM	32.9 µM and > 100 µM	33.7 µM and > 100 µM	31.7 µM and > 100 µM	29.5 µM and > 100 µM	35.2 µM and > 100 µM	28.2 µM and > 100 µM	34.3 µM and > 100 µM	–	–
Cc1ccc2c(c1)c(=O)c1c(NCCN(C)C)ccc3nnn2c31	20.3 µM	15.2 µM	9.72 µM	15.3 µM	10.2 µM	8.58 µM	20.5 µM	37.6 µM	–	7.67 µM
